Read-outs that look alike come from different tables or passages of the source.
Legend:
[1] = Iron excretion (urine and stool) by hypertransfused iron-overloaded rats; assay type: in vivo, Sprague-Dawley rats; conditions: for circulation time relative to DFO: intraperitoneal, inferred from increased urinary iron excretion; for Iron excreted, GROSS Stool / Iron excreted, GROSS Urine / Iron excreted, GROSS Stool, per μmole / Iron excreted, GROSS Urine, per μmole / Iron excreted, NET Stool, per μmole / Iron excreted, NET TOTAL, per μmole / Iron excreted, NET Urine, per μmole / Iron excreted, NET Stool / Iron excreted, NET Urine: 100 mg/kg; for Iron excreted, GROSS Stool, per μmole / Iron excreted, GROSS Urine, per μmole / Iron excreted, NET Stool, per μmole / Iron excreted, NET TOTAL, per μmole / Iron excreted, NET Urine, per μmole: normalized to molar dose; for absorption and cleavage after oral administration: inferred from net iron excretion; for Iron excreted, NET Stool / Iron excreted, NET Urine: gross minus background
Method: In this model, heat-damaged rat erythrocytes are transfused intraperitoneally (i.p.) on a daily basis.
Deferoxamine mesylate (DFO:Desferal) was obtained from the Ciba Pharmaceutical Company (Summit, N.J.) as a lyophilized powder. For administration to the hypertransfused rats, it was dissolved in physiological saline at a concentration of 10 mg/ml.
A homogeneous solution of acylated derivative was obtained by dissolving the drugs in propylene glycol at a concentration of 30 mg/ml.
Sprague-Dawley rats (60-80 g; Taconic Farms, Germantown, N.Y. (were iron overloaded via daily (5 days/week) intraperitoneal injections of heat-damaged rat erythrocytes. The red blood cells for infusion were purchased from Hilltop Lab Animals, Inc. (Scottsdale, Pa.). They were obtained from retired breeders, the donor animals being exsanguinated via cardiac puncture under CO2 anesthesia. The blood drawn into acid-citrate-dextrose containing gentamicin sulfate (25 g/ml) and shipped on wet ice by overnight express to the testing laboratory. Upon arrival the blood was stored at 4° C. for up to 7 days. Prior to infusion the red cells were slightly damaged by heating at 50° C. for 15 minutes.
The animals were placed on a low iron diet (>10 μg of Fe/g) for one week prior to screening. […] During screening the animals were placed in individual metabolic cages and urine and stool were collected daily. The daily transfusion of heat-damaged red cells was continued throughout drug testing and during intervals of rest between drug evaluations. The compounds were administered either by gavage (orally) or by intraperitoneal injection 4 to 8 hours after the animals were transfused. The dose of each drug was 100 mg/kg/day for 5 days. Urine and stool samples were collected approximately 24 hours after drug administration. They were placed in crucibles, dried at 110° C. and then ashed at 550° C. overnight. Following dissolution of the ash in 3N HCl, the iron content of the samples was determined by atomic absorption spectroscopy.
The iron-overloaded rats were divided into groups of six. Before testing any of the new compounds both positive and negative controls were evaluated. Baseline excretion of iron in the urine and stool of this series of hypertransfused rats was determined in the absence of drug administration (negative control). As a positive control, another group of six animals was given DFO intraperitoneally at a dose of 100 mg/kg (153 micromoles/kg). […] All of the drugs were evaluated both orally and intraperitoneally. The intraperitoneal effect was used to assess bioavailability.
In the prodrugs, where the hydroxamic acid moieties (iron binding sites) of DFO were blocked, effectiveness upon parenteral administration would indicate that the rat is able to metabolize the prodrug to the active species. Failure to be effective orally could then be attributed to lack of absorption. […] In order to obtain an estimate of the relative iron-chelating potency within the series, the amount of iron excreted in response to the acylated derivatives was normalized to correspond to the molar equivalent of 100 mg/kg DFO.

[2] = Solubility in water and ordinary organic solvents; assay type: physicochemical; conditions: in words
[3] = Intraperitoneal LD50 in Swiss-Webster mice; conditions: for LD50: mouse, in vivo, ip
[4] = cited from earlier work
[5] = ip, 100 mg/kg, DFO (historic), n=54

Row | Structure (SMILES) | circulation time relative to DFO [1] | Iron excreted, GROSS Stool ([1]; ip, acylated derivatives) [µg/kg/day] | Iron excreted, GROSS Urine ([1]; ip, acylated derivatives) [µg/kg/day] | Iron excreted, GROSS Stool, per μmole ([1]; ip) [µg/kg/day/µmol] | Iron excreted, GROSS Urine, per μmole ([1]; ip) [µg/kg/day/µmol] | Iron excreted, NET Stool, per μmole ([1]; ip) [µg/kg/day/µmol] | Iron excreted, NET TOTAL, per μmole ([1]; ip) [µg/kg/day/µmol] | Iron excreted, NET Urine, per μmole ([1]; ip) [µg/kg/day/µmol] | absorption and cleavage after oral administration ([1]; oral) | Iron excreted, GROSS Stool ([1]; po) [µg/kg/day] | Iron excreted, GROSS Urine ([1]; po) [µg/kg/day] | Iron excreted, GROSS Stool, per μmole ([1]; po) [µg/kg/day/µmol] | Iron excreted, GROSS Urine, per μmole ([1]; po) [µg/kg/day/µmol] | Iron excreted, NET Stool, per μmole ([1]; po) [µg/kg/day/µmol] | Iron excreted, NET TOTAL, per μmole ([1]; po) [µg/kg/day/µmol] | Iron excreted, NET Urine, per μmole ([1]; po) [µg/kg/day/µmol] | other results
1 | CCC(=O)NCCCCCN(OC(=O)CC)C(=O)CCC(=O)NCCCCCN(OC(=O)CC)C(=O)CCC(=O)NCCCCCN(OC(=O)CC)C(C)=O [PDP3, N-Propionyl-O,O,O-tripropionyl deferoxamine] | circulate for a longer period of time than DFO | 933 | 179 | 7.29 | 1.40 | 5.11 | 6.00 | 0.89 | efficiently absorbed and subsequently cleaved | 496 | 99 | 3.88 | 0.77 | 1.70 | 1.96 | 0.26 | 
2 | CCCCCCCC(=O)NCCCCCN(O)C(=O)CCC(=O)NCCCCCN(O)C(=O)CCC(=O)NCCCCCN(O)C(C)=O [N-octanoyl-O,O,O-trihydrogendeferoxamine] |  |  |  |  |  |  |  |  |  |  |  |  |  |  |  |  | solubility in water and ordinary organic solvents [2]: sparingly soluble
3 | CC(=O)N(O)CCCCCNC(=O)CCC(=O)N(O)CCCCCNC(=O)CCC(=O)N(O)CCCCCN [DFO, N'-[5-[[4-[[-5-(acetylhydroxamino)pentyl]amino]-1,4-dioxobutyl]hydroxyamino]pentyl]-N-(5-aminopentyl)-N-hydroxybutanediamide, reference compound] |  |  |  | 5.60 | 1.18 | 3.42 | 4.09 | 0.67 |  | 398 | 98 | 2.60 | 0.64 | 0.03 | 0.06 | 0.03 | LD50 [3]: 800 mg/kg; Iron excreted, GROSS Stool [4, 5]: 857 µg/kg/day; Iron excreted, GROSS Urine [4, 5]: 180 µg/kg/day; effectiveness of oral relative to parenteral administration ([4]; oral vs parenteral, historical data): less than 10%; Iron excreted, NET Stool ([1]; ip, DFO (historic)): 465 µg/kg/day; Iron excreted, NET Urine ([1]; ip, DFO (historic)): 87 µg/kg/day; Iron excreted, NET Stool ([1]; po): 6 µg/kg/day; Iron excreted, NET Urine ([1]; po): 5 µg/kg/day
4 | CCCC(=O)NCCCCCN(OC(=O)CCC)C(=O)CCC(=O)NCCCCCN(OC(=O)CCC)C(=O)CCC(=O)NCCCCCN(OC(=O)CCC)C(C)=O [BDB3, N-Butyroyl-O,O,O-tributyryl deferoxamine] | circulate for a longer period of time than DFO | 875 | 174 | 7.35 | 1.46 | 5.17 | 6.12 | 0.95 | efficiently absorbed and subsequently cleaved | 507 | 91 | 4.26 | 0.76 | 2.08 | 2.33 | 0.25 | 
5 | CCCCC(=O)NCCCCCN(OC(=O)CCCC)C(=O)CCC(=O)NCCCCCN(OC(=O)CCCC)C(=O)CCC(=O)NCCCCCN(OC(=O)CCCC)C(C)=O [VDV3, N-Valeroyl-O,O,O-trivaleroyl deferoxamine] | circulate for a longer period of time than DFO | 966 | 184 | 8.63 | 1.64 | 6.45 | 7.58 | 1.13 | efficiently absorbed and subsequently cleaved | 599 | 133 | 5.35 | 1.19 | 3.17 | 3.85 | 0.68 | systemic toxicity ([3]; in words): lack of systemic toxicity; LD50 [3]: 800 mg/kg; relative activity among derivatives tested ([1]; in words): most active derivative tested; iron excretion relative to oral DFO ([1]; oral, vs DFO given orally): more than 60 times
6 | CCCCCCCC(=O)ON(CCCCCNC(=O)CCC(=O)N(CCCCCNC(=O)CCC(=O)N(CCCCCN(C(C)=O)C(=O)CCCCCCC)OC(=O)CCCCCCC)OC(=O)CCCCCCC)C(C)=O [N-acetyl-N-octanoyl-O,O,O-trioctanoyldeferoxamine] |  |  |  |  |  |  |  |  |  |  |  |  |  |  |  |  | increase of absorption on adding an N-acyl group ([1]; oral, vs N-acetyl-O,O,O-trioctanoyldeferoxamine, earlier unpublished data): about 50%
7 | CCCCCCCCCCCCCC(=O)NCCCCCN(OC(=O)CC)C(=O)CCC(=O)NCCCCCN(OC(=O)CC)C(=O)CCC(=O)NCCCCCN(OC(=O)CC)C(C)=O [MDP3, N-Myristoyl-O,O,O-tripropionyl deferoxamine] |  | 434 | 134 | 4.06 | 1.25 | 1.88 | 2.62 | 0.74 |  | 551 | 88 | 5.15 | 0.82 | 2.97 | 3.28 | 0.31 | increase of potency (absorption) on lengthening N-terminal amide from 3 to 14 carbons ([1]; oral, MDP3 vs PDP3): two-thirds

Source: patent publication US5550161A, “Substituted orally effective ION chelators related to deferoxamine” (Oral-D, priority 1993, dated 1996)
